In patent US9314468B2, “Chemokine receptor modulators” (Altiris Therapeutics, Inc., priority 2008, dated 2016):

Molecular target: CXCR4 (Homo sapiens (Human), UniProt P61073)
Assay: Functional calcium mobilization assay (SDF-1α induced)
Assay type: cell-based
Conditions: for IC50: CEM cells, SDF-1α challenge at EC80-EC90, read-out: Ca Flux IC50; for inhibition at 1 µM: CCRF-CEM, read-out: % inhibition at 1 μM
Protocol: Functional modulation of CXCR4 was determined by calcium mobilization assay using leukemic lymphoid CEM cells, which naturally express high levels of CXCR4. Generally, the assay is carried out as follows: Cells are grown in vitro to confluency. On the day of the assay, cells are removed from the incubator, culture medium removed and replaced with a calcium sensitive dye (Calcium3 assay kit; Molecular Devices, Sunnyvale, Calif.). The cells are allowed to dye load for 45-60 min at 37° C. in the cell culture incubator and then allowed to equilibrate to room temperature for no more than 15 min before assay.
Compound plates were generated containing up to 3% dimethyl sulfoxide in media kept at room temperature. Test compounds were added to the cells at a 1:3 dilution, and calcium mobilization was measured using a Flex Station fluorescence imager (Molecular Devices). This first read was used to determine direct agonist activation of the CXCR4 receptor by the test compounds. […] Full dose response curves were generated daily for SDF-1a to calculate IC50 concentrations. The IC50 values are reported. In cases, where one was not determined, a percent inhibition at the 1 μM concentration was extrapolated.
Functional calcium mobilization assay was conducted as described in Example 27.

CXCR4, sequence (P61073 whole entry): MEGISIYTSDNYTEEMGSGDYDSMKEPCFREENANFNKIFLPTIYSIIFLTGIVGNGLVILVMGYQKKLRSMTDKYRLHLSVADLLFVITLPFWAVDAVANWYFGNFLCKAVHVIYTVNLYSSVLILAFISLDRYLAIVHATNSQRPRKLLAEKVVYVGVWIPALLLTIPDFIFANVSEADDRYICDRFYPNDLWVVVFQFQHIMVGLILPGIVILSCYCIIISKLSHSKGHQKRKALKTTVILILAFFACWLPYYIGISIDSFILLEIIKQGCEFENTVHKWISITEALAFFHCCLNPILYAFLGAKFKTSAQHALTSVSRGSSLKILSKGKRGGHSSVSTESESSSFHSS

Row | Compound | IC50 | inhibition at 1 µM
1 | O=C(Cn1c2ccccc2c2ccnc(CN(CCCN3CCNCC3)[C@H]3CCCc4cccnc43)c21)NC1CCOCC1 | 26 nM | –
2 | NCCCCN(Cc1nccc2c3ccccc3n(CCN3CCOCC3)c12)[C@H]1CCCc2cccnc21 | 4 nM | –
3 | NCCCCN(Cc1ccccn1)Cc1nccc2c1[nH]c1ccccc12 | 1970 nM | –
4 | O=C1CN(CCCN(Cc2nccc3c4ccccc4n(CC(=O)N4CCOCC4)c23)[C@H]2CCCc3cccnc32)CCN1 | 8720 nM | –
5 | NCCCn1c2ccccc2c2ccnc(CN[C@H]3CCCc4cccnc43)c21 | 8890 nM | –
6 | Cn1c2ccccc2c2ccnc(CN(CCCCN)[C@H]3CCCc4cccnc43)c21 | 22 nM | –
7 | CC(C)CN(Cc1nccc2c3ccccc3n(CCCN)c12)[C@H]1CCCc2cccnc21 | – | 0%
8 | c1cnc2c(c1)CCCC2N(CCCN1CCNCC1)Cc1nccc2c1[nH]c1ccccc12 (stereo not drawn) | 18 nM | –
9 | NCCCN(Cc1nccc2c1[nH]c1ccccc12)C1CCCc2cccnc21 (stereo not drawn) | – | 0%
10 | CN(Cc1nccc2c3ccccc3n(Cc3cnn[nH]3)c12)[C@H]1CCCc2cccnc21 | – | 0%
11 | NCCCCN(Cc1nccc2c1[nH]c1ccccc12)C1CCCc2cccnc21 (stereo not drawn) [drawing 654] | 142 nM | –
12 | NCCCCN(Cc1nccc2c3ccccc3n(CC(=O)N3CCC(N)CC3)c12)[C@H]1CCCc2cccnc21 | 4390 nM | –
13 | O=C(Cn1c2ccccc2c2ccnc(CN(C(=O)CCN3CCNCC3)[C@H]3CCCc4cccnc43)c21)N1CCOCC1 | – | 0%
14 | c1ccc(N2CCNCC2)c(CN(Cc2nccc3c2[nH]c2ccccc23)[C@H]2CCCc3cccnc32)c1 | 3730 nM | –
15 | CC(=O)NCCCCN(Cc1nccc2c1[nH]c1ccccc12)C1CCCc2cccnc21 (stereo not drawn) | 1720 nM | –
16 | NCCCCN(Cc1nccc2c3ccccc3n(CC(=O)N3CCSCC3)c12)[C@H]1CCCc2cccnc21 | 78 nM | –
17 | CCNCCCCN(Cc1nccc2c1[nH]c1ccccc12)C1CCCc2cccnc21 (stereo not drawn) | 168 nM | –
18 | O=C(O)Cn1c2ccccc2c2ccnc(CN(CCCN3CCNCC3)[C@H]3CCCc4cccnc43)c21 [drawing 753] | 135 nM | –
19 | NCCCCN(Cc1nccc2c3ccccc3n(CC(=O)N3CCNCC3)c12)[C@H]1CCCc2cccnc21 | 663 nM | –
20 | CC(C)(C)OC(=O)N(CCCCN(Cc1nccc2c1[nH]c1ccccc12)[C@H]1CCCc2cccnc21)C(=O)OC(C)(C)C | – | 19%
21 | NCCCn1c2ccccc2c2ccnc(CN(CCCN3CCNC(=O)C3)[C@H]3CCCc4cccnc43)c21 | 30 nM | –

Row | Compound | IC50 | inhibition at 1 µM
22 | Cn1c2ccccc2c2ccnc(CN(CCCCN)C3CCCc4cccnc43)c21 (stereo not drawn) | 10 nM | –
23 | c1cnc2c(c1)CCCC2N(CCCCNC1=NCCN1)Cc1nccc2c1[nH]c1ccccc12 (stereo not drawn) | 1670 nM | –
24 | c1cnc2c(c1)CCCC2N(CCN1CCNCC1)Cc1nccc2c1[nH]c1ccccc12 (stereo not drawn) | – | 0%
25 | CN(Cc1nccc2c3ccccc3n(CCN3C(=O)c4ccccc4C3=O)c12)[C@H]1CCCc2cccnc21 | 329 nM | –
26 | c1cnc2c(c1)CCC[C@@H]2N(CCCN1CCNCC1)Cc1nccc2c3ccccc3n(CCC3CCOCC3)c12 | 1 nM | –
27 | c1cnc2c(c1)CCC[C@@H]2N(Cc1ccc(N2CCNCC2)cc1)Cc1nccc2c1[nH]c1ccccc12 | – | 0%
28 | O=C1CNCCN1CCCN(Cc1nccc2c3ccccc3n(CC(=O)N3CCOCC3)c12)[C@H]1CCCc2cccnc21 | – | 0%
29 | NCCCCN(Cc1nccc2c3ccccc3n(CCCN)c12)[C@H]1CCCc2cccnc21 [drawing 748] | 21 nM | –
30 | NCCCCN(Cc1nccc2c3ccccc3n(CC(=O)N3CC[S+]([O-])CC3)c12)[C@H]1CCCc2cccnc21 | 61 nM | –
31 | NC(=O)NCCCCN(Cc1nccc2c1[nH]c1ccccc12)[C@H]1CCCc2cccnc21 | 6670 nM | –
32 | c1cnc2c(c1)CCC[C@@H]2N(CCCN1CCNCC1)Cc1nccc2c3ccccc3n(CC3CC3)c12 | 14 nM | –
33 | CC(C)(C)OC(=O)Cn1c2ccccc2c2ccnc(CN(CCCCN)[C@H]3CCCc4cccnc43)c21 | 1 nM | –
34 | CCOC(=O)Cn1c2ccccc2c2ccnc(CN(CCCCN)[C@H]3CCCc4cccnc43)c21 | 15 nM | –
35 | NCCCCN(Cc1cc2c3ccccc3n(CC(=O)N3CCOCC3)c2cn1)[C@H]1CCCc2cccnc21 | – | 0%
36 | NC(=O)CCCN(Cc1nccc2c1[nH]c1ccccc12)[C@H]1CCCc2cccnc21 | 1440 nM | –
37 | c1cnc(NCCCCN(Cc2nccc3c2[nH]c2ccccc23)[C@H]2CCCc3cccnc32)nc1 | – | 0%
38 | CC(c1ccccn1)N(CCCCN)Cc1nccc2c3ccccc3n(CC(=O)N3CCOCC3)c12 (stereo not drawn) | 423 nM | –
39 | c1cnc2c(c1)CCCC2N(CCCCNCC1CC1)Cc1nccc2c1[nH]c1ccccc12 (stereo not drawn) | 729 nM | –
40 | NCCCn1c2ccccc2c2ccnc(CN(CCCN3CCNCC3)[C@H]3CCCc4cccnc43)c21 | 5 nM | –
41 | O=C1CNCCN1CCCn1c2ccccc2c2ccnc(CN(CCCN3CCNCC3)[C@H]3CCCc4cccnc43)c21 | 44 nM | –
42 | NCCCCN(Cc1nccc2c3ccccc3n(Cc3cccnc3)c12)[C@H]1CCCc2cccnc21 | 481 nM | –

Row | Compound | IC50 | inhibition at 1 µM
43 | CC(C)(C)OC(=O)[C@@H](N)CCCN(Cc1nccc2c3ccccc3n(CC(=O)N3CCOCC3)c12)[C@H]1CCCc2cccnc21 | – | 0%
44 | NC1CCN(C(=O)CN(Cc2nccc3c2[nH]c2ccccc23)[C@H]2CCCc3cccnc32)CC1 | – | 0%
45 | CN(Cc1nccc2c3ccccc3n(CCCN3C(=O)c4ccccc4C3=O)c12)[C@H]1CCCc2cccnc21 | 217 nM | –
46 | CN1CCN(C(=O)Cn2c3ccccc3c3ccnc(CN(CCCCN)[C@H]4CCCc5cccnc54)c32)CC1 [drawing 725] | 30 nM | –
47 | NCCCCN(Cc1nccc2c3ccccc3n(Cc3ccccn3)c12)[C@H]1CCCc2cccnc21 | 31 nM | –
48 | CC(C)(C)OC(=O)Cn1c2ccccc2c2ccnc(CN(CCCN3CCNCC3)[C@H]3CCCc4cccnc43)c21 [drawing 743] | 59 nM | –
49 | CC(C)CN(CCCCN(Cc1nccc2c1[nH]c1ccccc12)[C@H]1CCCc2cccnc21)CC(C)C | – | 23%
50 | c1cnc2c(c1)CCC[C@@H]2N(CCCN1CCNCC1)Cc1nccc2c1[nH]c1ccccc12 | 87 nM | –
51 | c1cnc2c(c1)CCCC2N(CCCNC1=NCCN1)Cc1nccc2c1[nH]c1ccccc12 (stereo not drawn) | – | 6%
52 | N[C@H]1CC[C@H](CN(Cc2nccc3c4ccccc4n(CC(=O)N4CCOCC4)c23)[C@H]2CCCc3cccnc32)CC1 | 2150 nM | –
53 | NCCCCN(Cc1nccc2c1[nH]c1ccccc12)[C@H]1CCCc2cccnc21 | 30 nM | –
54 | N[C@@H](CCCN(Cc1nccc2c3ccccc3n(CC(=O)N3CCOCC3)c12)[C@H]1CCCc2cccnc21)C(=O)O | – | 0%
55 | C[C@@H]1CN(C(=O)Cn2c3ccccc3c3ccnc(CN(CCCCN)[C@H]4CCCc5cccnc54)c32)C[C@H](C)O1 [drawing 744] | 123 nM | –
56 | c1ccc(Cn2c3ccccc3c3ccnc(CN(CCCN4CCNCC4)[C@H]4CCCc5cccnc54)c32)nc1 | 176 nM | –
57 | NCCCCN(Cc1nccc2c3ccccc3n(CCCN3CCNC(=O)C3)c12)[C@H]1CCCc2cccnc21 | 4 nM | –
58 | CN(Cc1nccc2c3ccccc3n(CCCCN3C(=O)c4ccccc4C3=O)c12)[C@H]1CCCc2cccnc21 | – | 32%
59 | CCN(Cc1nccc2c3ccccc3n(CCCN)c12)[C@H]1CCCc2cccnc21 | 997 nM | –
60 | O=C(Cn1c2ccccc2c2ccnc(CN(CCCN3CCNCC3)[C@H]3CCCc4cccnc43)c21)N1CCOCC1 | 44 nM | –
61 | OCCCCN(Cc1nccc2c1[nH]c1ccccc12)[C@H]1CCCc2cccnc21 | – | 0%
62 | NCCCCN(Cc1nccc2c3ccccc3n(CCO)c12)[C@H]1CCCc2cccnc21 | 11 nM | –
63 | NCCCCN(Cc1nccc2c3ccccc3n(CC3CC3)c12)[C@H]1CCCc2cccnc21 | 4 nM | –

Row | Compound | IC50 | inhibition at 1 µM
64 | NCCCCN(Cc1cn(Cc2ccccc2)nn1)C1CCCc2cccnc21 (stereo not drawn) | – | 45%
65 | c1ccc(Cn2c3ccccc3c3ccnc(CN[C@H]4CCCc5cccnc54)c32)nc1 | 8390 nM | –
66 | COCCn1c2ccccc2c2ccnc(CN(CCCCN)[C@H]3CCCc4cccnc43)c21 | 20 nM | –
67 | NCCCCN(Cc1nccc2c3ccccc3n(CCCN3CCNCC3)c12)[C@H]1CCCc2cccnc21 [drawing 723] | 15 nM | –
68 | O=C1c2ccccc2C(=O)N1CCCn1c2ccccc2c2ccnc(CN[C@H]3CCCc4cccnc43)c21 | – | 0%
69 | NCCCCN(Cc1nccc2c3ccccc3n(CCN3CCNCC3)c12)[C@H]1CCCc2cccnc21 [drawing 754] | 63 nM | –
70 | c1cnc2c(c1)CCC[C@@H]2NCc1nccc2c1[nH]c1ccccc12 | – | 0%
71 | CN(C)C(=O)NCCCCN(Cc1nccc2c1[nH]c1ccccc12)C1CCCc2cccnc21 (stereo not drawn) | 38 nM | –
72 | CCNC(=O)NCCCCN(Cc1nccc2c1[nH]c1ccccc12)[C@H]1CCCc2cccnc21 | – | 0%
73 | c1ccc(CNCCCCN(Cc2nccc3c2[nH]c2ccccc23)C2CCCc3cccnc32)nc1 (stereo not drawn) | 5100 nM | –
74 | NCCCCN(Cc1cc2c(cn1)[nH]c1ccccc12)C1CCCc2cccnc21 (stereo not drawn) | 69 nM | –
75 | Cn1c2ccccc2c2cc(CN(CCCCN)[C@H]3CCCc4cccnc43)ncc21 | 57 nM | –
76 | CC(C)(C)OC(=O)Cn1c2ccccc2c2cc(CN(CCCCN)[C@H]3CCCc4cccnc43)ncc21 | 949 nM | –
77 | NCCCCN(Cc1nccc2c3ccccc3n(CC(=O)NC3CCNCC3)c12)[C@H]1CCCc2cccnc21 | 110 nM | –
78 | NCC#CCN(Cc1nccc2c1[nH]c1ccccc12)[C@H]1CCCc2cccnc21 | – | 0%
79 | O=C(Cn1c2ccccc2c2ccnc(CN(CCCCNCc3cccnc3)[C@H]3CCCc4cccnc43)c21)N1CCOCC1 | 1400 nM | –
80 | CN(Cc1nccc2c3ccccc3n(CCCN)c12)[C@H]1CCCc2cccnc21 | 1050 nM | –
81 | c1cnc2c(c1)CCCC2N(CCNC1=NCCN1)Cc1nccc2c1[nH]c1ccccc12 (stereo not drawn) | – | 0%
